Here are results for 17 compounds from article PMC9967275, “Screening the Pathogen Box to Discover and Characterize New Cruzain and TbrCatL Inhibitors” (Pathogens, 2023).

Molecules are shown by their SMILES.
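Note: at 5 µM compound concentration.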

T1 sequence (Q95PM0 entry or part of it): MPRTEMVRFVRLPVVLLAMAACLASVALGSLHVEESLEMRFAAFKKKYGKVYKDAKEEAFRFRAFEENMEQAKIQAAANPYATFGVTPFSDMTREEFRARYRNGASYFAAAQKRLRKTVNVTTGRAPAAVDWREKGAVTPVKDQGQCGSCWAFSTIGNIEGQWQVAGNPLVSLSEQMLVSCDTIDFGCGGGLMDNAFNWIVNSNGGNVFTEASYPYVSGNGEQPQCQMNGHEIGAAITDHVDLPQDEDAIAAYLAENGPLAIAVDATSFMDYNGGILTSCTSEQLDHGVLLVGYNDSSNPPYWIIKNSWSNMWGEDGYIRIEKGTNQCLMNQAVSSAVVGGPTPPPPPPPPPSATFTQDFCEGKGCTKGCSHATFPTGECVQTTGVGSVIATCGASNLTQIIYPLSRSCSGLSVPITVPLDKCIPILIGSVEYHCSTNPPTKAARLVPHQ

The target in the first assay is cruzain (Trypanosoma cruzi, UniProt P25779). The experiment in a line: biochemical. Particulars: 0’ (no pre-incubation); sheet Screening results. The method, boiled down: (§1)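 Recombinant enzymes assayed by Z-Phe-Arg-AMC cleavage at 25 °C, fluorescence 340/440 nm over 5–7 min, with 10 min or no enzyme–compound preincubation.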
Sequence of cruzain (P25779 123-337 limits assumed): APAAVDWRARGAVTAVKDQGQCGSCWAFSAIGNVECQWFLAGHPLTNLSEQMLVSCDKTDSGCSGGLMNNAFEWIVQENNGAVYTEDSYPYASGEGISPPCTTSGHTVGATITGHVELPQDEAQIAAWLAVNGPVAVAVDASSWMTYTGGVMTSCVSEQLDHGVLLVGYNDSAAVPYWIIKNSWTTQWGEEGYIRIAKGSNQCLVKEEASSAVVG
Consider `N#CCN(CCCCN1CCN(c2ccc(F)cc2)CC1)C(=O)OCc1ccccc1` [MMV675997], for which the “Cruzain Inhibition 0’” value amounted to 1.2%.

`O=C(c1ccc(F)cc1)N(CCNc1ccccc1)c1ccccc1` [MMV676204]: the “Cruzain Inhibition 0’” value is on record as 6%.

For the compound `Cc1c[nH]c(CCNC(=O)c2cc(-c3ccc(Cl)cc3)cs2)n1` [MMV676350], the “Cruzain Inhibition 0’” value is on record as 17%.

For `Brc1c(-c2ccc3c(c2)OCO3)nc2ncccn12` [MMV676377], the “Cruzain Inhibition 0’” value turned out to be 1.2%.

For the compound `COc1cccc(OCC(=O)c2ccc(Br)cc2)c1` [MMV676379], the “Cruzain Inhibition 0’” value was 8%.

Take `CC(=O)Nc1ccc(NC(=O)c2cc(-c3cc(Cl)ccc3O)n[nH]2)cc1` [MMV676380]: the “Cruzain Inhibition 0’” value amounted to 0.6%.

Regarding `Cn1ncc2c(N3CCOCC3)nc(NCCc3c[nH]c4ccccc34)nc21` [MMV676382], the “Cruzain Inhibition 0’” value is listed as 17%.

`CCC(Sc1nc2ccccc2o1)C(=O)Nc1nccs1` (centres unmarked) [MMV676383]: the “Cruzain Inhibition 0’” value was determined as 3.5%.

With `Cc1cccc(Cn2ccc(NC(=O)c3ccc4c(c3)OCO4)n2)c1` [MMV676386], the “Cruzain Inhibition 0’” value is on record as 8%.

The same assay, now with this note: 0’ (pre-incubation time); Pathogen Box screening results.
`C[C@H](C(N)=O)N1CCCC[C@@H]1c1ccc(OCc2cccc(F)c2)cc1` [MMV676270]: the “Cruzain Inhibition 0’” value stood at 4.6%.

Staying with this assay, now noted: 0’ (pre-incubation time); sheet "Screening results".
`Cc1[nH]c2cc(F)cc(F)c2c(=O)c1-c1ccc(Oc2ccc(OC(F)(F)F)cc2)cc1` [MMV671636]: the “Cruzain 0’ Inhibition” value came to 8%.

As for `COc1ccc(OC)c(NCc2ccc3nc(N)nc(N)c3c2Cl)c1` [MMV675968], the “Cruzain 0’ Inhibition” value is reported as 6.6%.

For `CC(C)(C)c1ccc(N[C@@H]2CCCC[C@H]2NC(=O)c2ccco2)cc1` [MMV675969], the “Cruzain 0’ Inhibition” value was -8%.

On to `COc1ccc(-c2nn(C(C)C)c3ncnc(N)c23)cc1OC` [MMV675993], for which the “Cruzain 0’ Inhibition” value was -7%.

For the compound `Clc1ccc(-n2cc(COc3ccnc4ccccc34)nn2)cc1` [MMV675994], the “Cruzain 0’ Inhibition” value is reported as 5%.

As to `COc1ccc(N(CCc2cccc(C)n2)C(C)=O)cc1` [MMV675995], the “Cruzain 0’ Inhibition” value was found to be 2.8%.

Take `COc1ccc(N(CCc2cccc(C)n2)C(=O)C2CCCCC2)cc1` [MMV675996]: the “Cruzain 0’ Inhibition” value is recorded as -3%.

Staying with this assay, now noted: 10’ (pre-incubation time); Pathogen Box screening results.
Take `C[C@H](C(N)=O)N1CCCC[C@@H]1c1ccc(OCc2cccc(F)c2)cc1` [MMV676270]: the “Cruzain Inhibition 10’” value came out at 9%.

The assay is the same for the next values; noted with them: 10’ (pre-incubation time); sheet "Screening results".
On to `Cc1[nH]c2cc(F)cc(F)c2c(=O)c1-c1ccc(Oc2ccc(OC(F)(F)F)cc2)cc1` [MMV671636], for which the “Cruzain 10’ Inhibition” value turned out to be 17%.

As to `COc1ccc(OC)c(NCc2ccc3nc(N)nc(N)c3c2Cl)c1` [MMV675968], the “Cruzain 10’ Inhibition” value is reported as 26%.

For `CC(C)(C)c1ccc(N[C@@H]2CCCC[C@H]2NC(=O)c2ccco2)cc1` [MMV675969], the “Cruzain 10’ Inhibition” value was -5%.

Take `COc1ccc(-c2nn(C(C)C)c3ncnc(N)c23)cc1OC` [MMV675993]: the “Cruzain 10’ Inhibition” value is recorded as -1.8%.

`Clc1ccc(-n2cc(COc3ccnc4ccccc34)nn2)cc1` [MMV675994]: the “Cruzain 10’ Inhibition” value came to 14%.

Regarding `COc1ccc(N(CCc2cccc(C)n2)C(C)=O)cc1` [MMV675995], the “Cruzain 10’ Inhibition” value turned out to be 1.9%.

With `COc1ccc(N(CCc2cccc(C)n2)C(=O)C2CCCCC2)cc1` [MMV675996], the “Cruzain 10’ Inhibition” value is reported as -2.2%.

The same assay, now with this note: 10’ (pre-incubation); sheet Screening results.
Consider `N#CCN(CCCCN1CCN(c2ccc(F)cc2)CC1)C(=O)OCc1ccccc1` [MMV675997], for which the “Cruzain Inhibition 10’” value worked out at 3.2%.

For `O=C(c1ccc(F)cc1)N(CCNc1ccccc1)c1ccccc1` [MMV676204], the “Cruzain Inhibition 10’” value stood at 4.7%.

Regarding `Cc1c[nH]c(CCNC(=O)c2cc(-c3ccc(Cl)cc3)cs2)n1` [MMV676350], the “Cruzain Inhibition 10’” value is reported as 22%.

On to `Brc1c(-c2ccc3c(c2)OCO3)nc2ncccn12` [MMV676377], for which the “Cruzain Inhibition 10’” value is on record as -0.9%.

`COc1cccc(OCC(=O)c2ccc(Br)cc2)c1` [MMV676379]: the “Cruzain Inhibition 10’” value was found to be 14%.

For the compound `CC(=O)Nc1ccc(NC(=O)c2cc(-c3cc(Cl)ccc3O)n[nH]2)cc1` [MMV676380], the “Cruzain Inhibition 10’” value is -0.9%.

For the compound `Cn1ncc2c(N3CCOCC3)nc(NCCc3c[nH]c4ccccc34)nc21` [MMV676382], the “Cruzain Inhibition 10’” value turned out to be 15%.

Take `CCC(Sc1nc2ccccc2o1)C(=O)Nc1nccs1` (centres unmarked) [MMV676383]: the “Cruzain Inhibition 10’” value is listed as 4%.

Regarding `Cc1cccc(Cn2ccc(NC(=O)c3ccc4c(c3)OCO4)n2)c1` [MMV676386], the “Cruzain Inhibition 10’” value came to 2.6%.

The next assay concerns the target T1, TbrCatL (Trypanosoma brucei rhodesiense, UniProt Q95PM0).
T1 construct: Conor Caffrey (University of California San Diego)
As to the kind of experiment: TbrCatL enzymatic inhibition assay (cleavage of fluorogenic substrate Z-FR-AMC). Particulars: 0’ (no pre-incubation); sheet Screening results. The class given is biochemical. The procedure, abridged:
as §1
Take `N#CCN(CCCCN1CCN(c2ccc(F)cc2)CC1)C(=O)OCc1ccccc1` [MMV675997]: the “TbrCatL Inhibition 0’” value was determined as 1.6%.

`O=C(c1ccc(F)cc1)N(CCNc1ccccc1)c1ccccc1` [MMV676204]: the “TbrCatL Inhibition 0’” value was 2.6%.

For `Cc1c[nH]c(CCNC(=O)c2cc(-c3ccc(Cl)cc3)cs2)n1` [MMV676350], the “TbrCatL Inhibition 0’” value is 28%.

Take `Brc1c(-c2ccc3c(c2)OCO3)nc2ncccn12` [MMV676377]: the “TbrCatL Inhibition 0’” value is 5%.

`COc1cccc(OCC(=O)c2ccc(Br)cc2)c1` [MMV676379]: the “TbrCatL Inhibition 0’” value worked out at 9%.

`CC(=O)Nc1ccc(NC(=O)c2cc(-c3cc(Cl)ccc3O)n[nH]2)cc1` [MMV676380]: the “TbrCatL Inhibition 0’” value is reported as -5%.

Regarding `Cn1ncc2c(N3CCOCC3)nc(NCCc3c[nH]c4ccccc34)nc21` [MMV676382], the “TbrCatL Inhibition 0’” value stood at 4.7%.

Consider `CCC(Sc1nc2ccccc2o1)C(=O)Nc1nccs1` (centres unmarked) [MMV676383], for which the “TbrCatL Inhibition 0’” value came out at 10%.

For the compound `Cc1cccc(Cn2ccc(NC(=O)c3ccc4c(c3)OCO4)n2)c1` [MMV676386], the “TbrCatL Inhibition 0’” value is listed as 2.8%.

The assay is the same for the next values; noted with them: 0’ (pre-incubation time); Pathogen Box screening results.
With `C[C@H](C(N)=O)N1CCCC[C@@H]1c1ccc(OCc2cccc(F)c2)cc1` [MMV676270], the “TbrCatL Inhibition 0’” value is on record as 3.2%.

The assay is the same for the next values; noted with them: 0’ (pre-incubation time); sheet "Screening results".
On to `Cc1[nH]c2cc(F)cc(F)c2c(=O)c1-c1ccc(Oc2ccc(OC(F)(F)F)cc2)cc1` [MMV671636], for which the “TbrCatL 0’ Inhibition” value turned out to be 10%.

As to `COc1ccc(OC)c(NCc2ccc3nc(N)nc(N)c3c2Cl)c1` [MMV675968], the “TbrCatL 0’ Inhibition” value worked out at 20%.

In the case of `CC(C)(C)c1ccc(N[C@@H]2CCCC[C@H]2NC(=O)c2ccco2)cc1` [MMV675969], the “TbrCatL 0’ Inhibition” value was -4.6%.

Regarding `COc1ccc(-c2nn(C(C)C)c3ncnc(N)c23)cc1OC` [MMV675993], the “TbrCatL 0’ Inhibition” value is listed as -7%.

`Clc1ccc(-n2cc(COc3ccnc4ccccc34)nn2)cc1` [MMV675994]: the “TbrCatL 0’ Inhibition” value is given as -1.8%.

As for `COc1ccc(N(CCc2cccc(C)n2)C(C)=O)cc1` [MMV675995], the “TbrCatL 0’ Inhibition” value is recorded as -3%.

As to `COc1ccc(N(CCc2cccc(C)n2)C(=O)C2CCCCC2)cc1` [MMV675996], the “TbrCatL 0’ Inhibition” value is -13%.

Still in this assay, the particulars now being: 10’ (pre-incubation time); Pathogen Box screening results.
Consider `C[C@H](C(N)=O)N1CCCC[C@@H]1c1ccc(OCc2cccc(F)c2)cc1` [MMV676270], for which the “TbrCatL Inhibition 10’” value is on record as -0.6%.

The same assay, now with this note: 10’ (pre-incubation time); sheet "Screening results".
For `Cc1[nH]c2cc(F)cc(F)c2c(=O)c1-c1ccc(Oc2ccc(OC(F)(F)F)cc2)cc1` [MMV671636], the “TbrCatL 10’ Inhibition” value came to 6.6%.

Consider `COc1ccc(OC)c(NCc2ccc3nc(N)nc(N)c3c2Cl)c1` [MMV675968], for which the “TbrCatL 10’ Inhibition” value stood at 22%.

As to `CC(C)(C)c1ccc(N[C@@H]2CCCC[C@H]2NC(=O)c2ccco2)cc1` [MMV675969], the “TbrCatL 10’ Inhibition” value is given as -6%.

Take `COc1ccc(-c2nn(C(C)C)c3ncnc(N)c23)cc1OC` [MMV675993]: the “TbrCatL 10’ Inhibition” value was -5.6%.

For `Clc1ccc(-n2cc(COc3ccnc4ccccc34)nn2)cc1` [MMV675994], the “TbrCatL 10’ Inhibition” value was found to be 11%.

Turning to `COc1ccc(N(CCc2cccc(C)n2)C(C)=O)cc1` [MMV675995], the “TbrCatL 10’ Inhibition” value was 19%.

Take `COc1ccc(N(CCc2cccc(C)n2)C(=O)C2CCCCC2)cc1` [MMV675996]: the “TbrCatL 10’ Inhibition” value is reported as -10%.

The assay is the same for the next values; noted with them: 10’ (pre-incubation); sheet Screening results.
In the case of `N#CCN(CCCCN1CCN(c2ccc(F)cc2)CC1)C(=O)OCc1ccccc1` [MMV675997], the “TbrCatL Inhibition 10’” value is recorded as 5%.

`O=C(c1ccc(F)cc1)N(CCNc1ccccc1)c1ccccc1` [MMV676204]: the “TbrCatL Inhibition 10’” value was -1.3%.

Take `Cc1c[nH]c(CCNC(=O)c2cc(-c3ccc(Cl)cc3)cs2)n1` [MMV676350]: the “TbrCatL Inhibition 10’” value amounted to 28%.

Take `Brc1c(-c2ccc3c(c2)OCO3)nc2ncccn12` [MMV676377]: the “TbrCatL Inhibition 10’” value was -1.8%.

Regarding `COc1cccc(OCC(=O)c2ccc(Br)cc2)c1` [MMV676379], the “TbrCatL Inhibition 10’” value is on record as 20%.

`CC(=O)Nc1ccc(NC(=O)c2cc(-c3cc(Cl)ccc3O)n[nH]2)cc1` [MMV676380]: the “TbrCatL Inhibition 10’” value is given as -3%.

`Cn1ncc2c(N3CCOCC3)nc(NCCc3c[nH]c4ccccc34)nc21` [MMV676382]: the “TbrCatL Inhibition 10’” value was 7.5%.

`CCC(Sc1nc2ccccc2o1)C(=O)Nc1nccs1` (centres unmarked) [MMV676383]: the “TbrCatL Inhibition 10’” value worked out at 7.5%.

For the compound `Cc1cccc(Cn2ccc(NC(=O)c3ccc4c(c3)OCO4)n2)c1` [MMV676386], the “TbrCatL Inhibition 10’” value was 1.8%.
